We go through 25 molecules from US10501461B2, “Tyrosine amide derivatives as Rho-kinase inhibitors” (CHIESI FARMACEUTICI S.P.A., priority 2017, dated 2019).

For test [1], the target named is Rho kinase 2 (ROCK-II) (Homo sapiens, UniProt O75116). The experiment in a line: In vitro Rho kinase inhibitory activity assay (ADP-Glo), Rho kinase 2. The format is biochemical. The note with it: 10 μM ATP, 25° C., expressed as range of activity. Here is the method:
(§1) The effectiveness of compounds of the present invention to inhibit Rho kinase activity can be determined in a 10 μl assay containing 40 mM Tris pH7.5, 20 mM MgCl2 0.1 mg/ml BSA, 50 μM DTT and 2.5 μM peptide substrate (Myelin Basic Protein) using an ADP-Glo kit (Promega). Compounds were dissolved in DMSO such that the final concentration of DMSO was 1% in the assay. All reactions/incubations are performed at 25° C. Compound (2 ul) and either Rho kinase 1 or 2 (4 μl) were mixed and incubated for 30 mins. Reactions were initiated by addition of ATP (4 μl) such that the final concentration of ATP in the assay was 10 μM. After a 1 hour incubation 10 μl of ADP-Glo Reagent was added and after a further 45 minute incubation 20 ul of Kinase Detection Buffer was added and the mixture incubated for a further 30 minutes. The luminescent signal was measured on a luminometer. […] Compounds were tested in dose-response format and the inhibition of kinase activity was calculated at each concentration of compound. To determine the IC50 (concentration of compound required to inhibit 50% of the enzyme activity) data were fit to a plot of % inhibition vs Log10 compound concentration using a sigmoidal fit with a variable slope and fixing the maximum to 100% and the minimum to 0%. To determine the Ki values the Cheng-Prusoff equation was utilized (Ki=IC50/(1+[S]/Km).
(In general: In ADP-Glo the light output rises with the ADP produced.)

Test [2] addresses Rho kinase 1 (ROCK-I) (Homo sapiens, UniProt Q13464). Put plainly: In vitro Rho kinase inhibitory activity assay (ADP-Glo), Rho kinase 1. The format is biochemical. The note with it: 10 μM ATP, 25° C., expressed as range of activity. Here is the method: as §1

Sequence of Rho kinase 1 (ROCK-I) (Q13464 whole entry): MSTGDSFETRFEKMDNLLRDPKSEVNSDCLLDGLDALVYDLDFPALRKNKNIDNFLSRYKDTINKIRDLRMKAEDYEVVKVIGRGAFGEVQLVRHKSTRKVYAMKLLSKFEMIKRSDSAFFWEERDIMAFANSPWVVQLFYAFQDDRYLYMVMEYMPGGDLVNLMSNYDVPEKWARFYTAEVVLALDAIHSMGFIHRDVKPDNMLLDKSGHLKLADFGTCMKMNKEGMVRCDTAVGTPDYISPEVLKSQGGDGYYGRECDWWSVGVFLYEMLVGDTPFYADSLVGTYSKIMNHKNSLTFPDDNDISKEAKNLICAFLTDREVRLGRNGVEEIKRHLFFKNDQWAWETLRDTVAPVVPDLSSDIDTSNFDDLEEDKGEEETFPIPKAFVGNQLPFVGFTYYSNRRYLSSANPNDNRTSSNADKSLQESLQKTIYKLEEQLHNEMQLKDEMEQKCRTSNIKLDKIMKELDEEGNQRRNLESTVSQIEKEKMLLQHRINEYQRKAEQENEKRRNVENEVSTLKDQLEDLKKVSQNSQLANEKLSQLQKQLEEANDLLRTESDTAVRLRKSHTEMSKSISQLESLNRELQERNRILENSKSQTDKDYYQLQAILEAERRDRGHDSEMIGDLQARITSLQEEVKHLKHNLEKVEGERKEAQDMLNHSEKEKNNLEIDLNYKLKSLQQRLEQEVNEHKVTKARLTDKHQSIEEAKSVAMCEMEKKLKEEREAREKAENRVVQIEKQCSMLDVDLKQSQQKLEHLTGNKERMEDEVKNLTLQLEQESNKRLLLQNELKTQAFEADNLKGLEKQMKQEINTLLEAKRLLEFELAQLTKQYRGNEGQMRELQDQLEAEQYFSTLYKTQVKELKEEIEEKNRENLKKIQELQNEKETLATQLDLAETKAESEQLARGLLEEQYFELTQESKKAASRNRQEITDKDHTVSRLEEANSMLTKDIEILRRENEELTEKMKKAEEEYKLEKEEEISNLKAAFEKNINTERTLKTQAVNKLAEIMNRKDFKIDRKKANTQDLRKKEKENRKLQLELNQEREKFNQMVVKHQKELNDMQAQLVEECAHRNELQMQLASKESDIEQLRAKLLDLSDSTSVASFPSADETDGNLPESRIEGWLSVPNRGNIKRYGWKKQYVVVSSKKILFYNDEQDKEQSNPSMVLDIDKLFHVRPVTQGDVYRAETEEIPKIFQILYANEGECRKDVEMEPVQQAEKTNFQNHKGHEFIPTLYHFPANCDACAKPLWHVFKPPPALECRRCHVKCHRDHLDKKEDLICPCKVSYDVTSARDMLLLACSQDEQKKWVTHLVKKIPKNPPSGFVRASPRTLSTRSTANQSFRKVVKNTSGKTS
Sequence of Rho kinase 2 (ROCK-II) (O75116 whole entry): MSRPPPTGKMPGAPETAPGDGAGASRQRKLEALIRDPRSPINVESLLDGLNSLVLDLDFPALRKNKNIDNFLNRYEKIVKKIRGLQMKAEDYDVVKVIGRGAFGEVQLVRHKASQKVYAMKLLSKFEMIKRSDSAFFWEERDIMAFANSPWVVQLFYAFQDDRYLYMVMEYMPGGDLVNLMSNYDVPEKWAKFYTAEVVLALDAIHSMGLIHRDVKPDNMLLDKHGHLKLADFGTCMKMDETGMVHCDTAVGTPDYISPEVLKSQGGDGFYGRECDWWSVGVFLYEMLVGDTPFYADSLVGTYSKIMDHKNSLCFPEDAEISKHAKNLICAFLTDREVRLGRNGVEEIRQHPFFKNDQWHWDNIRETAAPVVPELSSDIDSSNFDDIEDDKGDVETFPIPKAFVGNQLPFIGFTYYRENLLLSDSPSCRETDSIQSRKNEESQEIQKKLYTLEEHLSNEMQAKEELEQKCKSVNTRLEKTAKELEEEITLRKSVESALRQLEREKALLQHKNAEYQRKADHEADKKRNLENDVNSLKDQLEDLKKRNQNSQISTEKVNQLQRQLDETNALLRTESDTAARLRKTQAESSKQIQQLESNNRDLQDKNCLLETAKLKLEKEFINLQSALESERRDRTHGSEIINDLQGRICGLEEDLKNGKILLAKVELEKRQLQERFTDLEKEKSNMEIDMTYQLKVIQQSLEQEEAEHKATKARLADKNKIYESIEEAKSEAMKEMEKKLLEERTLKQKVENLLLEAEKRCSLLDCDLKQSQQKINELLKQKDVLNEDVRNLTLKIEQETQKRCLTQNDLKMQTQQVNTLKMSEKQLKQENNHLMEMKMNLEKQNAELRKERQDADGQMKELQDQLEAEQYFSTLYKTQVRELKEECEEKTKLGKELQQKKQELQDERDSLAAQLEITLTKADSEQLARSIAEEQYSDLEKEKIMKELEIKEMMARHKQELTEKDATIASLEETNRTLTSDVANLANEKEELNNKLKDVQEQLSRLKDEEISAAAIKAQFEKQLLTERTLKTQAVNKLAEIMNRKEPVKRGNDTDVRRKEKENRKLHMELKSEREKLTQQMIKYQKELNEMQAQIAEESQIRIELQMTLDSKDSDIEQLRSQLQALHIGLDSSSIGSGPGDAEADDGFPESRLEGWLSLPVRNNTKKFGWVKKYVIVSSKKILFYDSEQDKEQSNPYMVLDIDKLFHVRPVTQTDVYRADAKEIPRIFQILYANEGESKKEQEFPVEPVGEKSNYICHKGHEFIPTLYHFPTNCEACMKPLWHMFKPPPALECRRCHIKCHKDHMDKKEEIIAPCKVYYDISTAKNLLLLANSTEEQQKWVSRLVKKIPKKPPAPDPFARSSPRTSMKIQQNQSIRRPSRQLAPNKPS

What is called Ki is a dissociation constant, usually derived from enzyme kinetics or from competition with a known ligand. Low readings indicate tighter binding, high ones weaker binding. For `N#Cc1c[nH]c2nccc(Oc3ccc(C[C@H](N)C(=O)NC4CCOCC4)cc3)c12` [Example 218, (S)-2-amino-3-(4-((3-cyano-1H-pyrrolo[2,3-b]pyridin-4-yl)oxy)phenyl)-N-(tetrahydro-2H-pyran-4-yl)propanamide], the inhibition constant (Ki) in test [1] and in test [2] was < 3 nM each time.

Regarding `Cc1c[nH]c2nccc(Oc3ccc(CC(N)C(=O)N4CCN(CC5CC5)CC4)cc3F)c12` (centres unmarked) [Example 58, 2-amino-1-(4-(cyclopropylmethyl)piperazin-1-yl)-3-(3-fluoro-4-((3-methyl-1H-pyrrolo[2,3-b]pyridin-4-yl)oxy)phenyl)propan-1-one], the inhibition constant (Ki) in test [1] and in test [2] was < 3 nM each time.

For `Cc1cccc(CN2CCN(C(=O)C(N)Cc3ccc(Oc4ccnc5[nH]cc(C)c45)c(F)c3)CC2)c1` (centres unmarked) [Example 73, 2-amino-3-(3-fluoro-4-((3-methyl-1H-pyrrolo[2,3-b]pyridin-4-yl)oxy)phenyl)-1-(4-(3-methylbenzyl)piperazin-1-yl)propan-1-one], the Ki in test [1] and in test [2] was < 3 nM in each case.

As for `Cc1c[nH]c2nccc(Oc3ccc(CC(N)C(=O)Nc4ccncc4)cc3F)c12` (centres unmarked) [Example 71, 2-amino-3-(3-fluoro-4-((3-methyl-1H-pyrrolo[2,3-b]pyridin-4-yl)oxy)phenyl)-N-(pyridin-4-yl)propanamide], the Ki in test [1] and in test [2] was < 3 nM each time.

`Cc1c[nH]c2nccc(Oc3ccc(CC(N)C(=O)N4CCc5ccncc5C4)cc3F)c12` (centres unmarked) [Example 67, 2-amino-1-(3,4-dihydro-2,7-naphthyridin-2(1H)-yl)-3-(3-fluoro-4-((3-methyl-1H-pyrrolo[2,3-b]pyridin-4-yl)oxy)phenyl)propan-1-one]: the Ki in test [1] and in test [2] was < 3 nM in each case.

Take `Cc1c[nH]c2nccc(Oc3ccc(C[C@H](N)C(=O)NCCCN(C)C)cc3F)c12` [Example 15, (S)-2-amino-N-(3-(dimethylamino)propyl)-3-(3-fluoro-4-((3-methyl-1H-pyrrolo[2,3-b]pyridin-4-yl)oxy)phenyl)propanamide]: the inhibition constant Ki in test [1] and in test [2] was < 3 nM throughout.

Consider `Cc1c[nH]c2nccc(Oc3ccc(C[C@H](N)C(=O)NC4(CO)CCCCC4)cc3F)c12` [Example 32, (S)-2-amino-3-(3-fluoro-4-((3-methyl-1H-pyrrolo[2,3-b]pyridin-4-yl)oxy)phenyl)-N-(1-(hydroxymethyl)cyclohexyl)propanamide], for which the inhibition constant (Ki) in test [1] and in test [2] was < 3 nM in each case.

`Cc1c[nH]c2nccc(Oc3ccc(C[C@@H](N)C(=O)NC4CCCCC4)cc3)c12` [Example 142, (R)-2-amino-N-cyclohexyl-3-(4-((3-methyl-1H-pyrrolo[2,3-b]pyridin-4-yl)oxy)phenyl)propanamide]: the inhibition constant (Ki) in test [1] and in test [2] was 3 to 30 nM each time.

Take `Cc1c[nH]c2nccc(Oc3ccc(C[C@H](N)C(=O)N4CCN(C(=O)c5cccc(CN(C)C)c5)CC4)cc3F)c12` [Example 173, (S)-2-amino-1-(4-(3-((dimethylamino)methyl)benzoyl)piperazin-1-yl)-3-(3-fluoro-4-((3-methyl-1H-pyrrolo[2,3-b]pyridin-4-yl)oxy)phenyl)propan-1-one]: the inhibition constant (Ki) in test [1] and in test [2] was < 3 nM in each case.

For `Cc1c[nH]c2nccc(Oc3ccc(C[C@H](N)C(=O)N4C[C@@H](C)N(C)[C@@H](C)C4)cc3F)c12` [Example 17, (S)-2-amino-3-(3-fluoro-4-((3-methyl-1H-pyrrolo[2,3-b]pyridin-4-yl)oxy)phenyl)-1-((3S,5R)-3,4,5-trimethylpiperazin-1-yl)propan-1-one], the inhibition constant (Ki) in test [1] and in test [2] was < 3 nM each time.

As to `Cc1c[nH]c2nccc(Oc3ccc(C[C@H](N)C(=O)NCc4ccccc4)cc3)c12` [Example 135, (S)-2-amino-N-benzyl-3-(4-((3-methyl-1H-pyrrolo[2,3-b]pyridin-4-yl)oxy)phenyl)propanamide], the Ki in test [1] and in test [2] was < 3 nM in each case.

For the molecule `N[C@@H](Cc1ccc(Oc2ccnc3[nH]ccc23)cc1)C(=O)NCC1CCCCC1` [Example 107, (S)-3-(4-((1H-pyrrolo[2,3-b]pyridin-4-yl)oxy)phenyl)-2-amino-N-(cyclohexylmethyl)propanamide], the Ki in test [1] and in test [2] was < 3 nM throughout.

For the molecule `Cc1c[nH]c2nccc(Oc3ccc(C[C@H](N)C(=O)N4CCN(Cc5nccn5C)CC4)cc3F)c12` [Example 156, (S)-2-amino-3-(3-fluoro-4-((3-methyl-1H-pyrrolo[2,3-b]pyridin-4-yl)oxy)phenyl)-1-(4-((1-methyl-1H-imidazol-2-yl)methyl)piperazin-1-yl)propan-l-one], the inhibitory constant (Ki) in test [1] and in test [2] was < 3 nM in each case.

`Cc1c[nH]c2nccc(Oc3ccc(C[C@H](N)C(=O)N4C[C@@H]5C[C@H]4CN5Cc4ccccc4)cc3F)c12` [Example 24, (S)-2-amino-1-((1S,4S)-5-benzyl-2,5-diazabicyclo[2.2.1]heptan-2-yl)-3-(3-fluoro-4-((3-methyl-1H-pyrrolo[2,3-b]pyridin-4-yl)oxy)phenyl)propan-1-one]: the Ki in test [1] and in test [2] was < 3 nM each time.

For the molecule `NC(Cc1ccc(Oc2ccnc3[nH]ccc23)cc1)C(=O)Nc1ccc(C(F)(F)F)cc1` (centres unmarked) [Example 91, 3-(4-((1H-pyrrolo[2,3-b]pyridin-4-yl)oxy)phenyl)-2-amino-N-(4-(trifluoromethyl)phenyl)propanamide], the inhibitory constant (Ki) in test [1] is < 3 nM; in test [2], 3 to 30 nM.

For the molecule `Cc1c[nH]c2nccc(Oc3ccc(C[C@H](N)C(=O)NC4CCCCC4)cc3)c12` [Example 141, (S)-2-amino-N-cyclohexyl-3-(4-((3-methyl-1H-pyrrolo[2,3-b]pyridin-4-yl)oxy)phenyl)propanamide], the inhibitory constant (Ki) in test [1] and in test [2] was < 3 nM throughout.

For `Cc1c[nH]c2nccc(Oc3ccc(C[C@H](N)C(=O)N4CCN(Cc5cnccn5)CC4)cc3F)c12` [Example 155, (S)-2-amino-3-(3-fluoro-4-((3-methyl-1H-pyrrolo[2,3-b]pyridin-4-yl)oxy)phenyl)-1-(4-(pyrazin-2-ylmethyl)piperazin-1-yl)propan-1-one], the inhibitory constant (Ki) in test [1] and in test [2] was < 3 nM in each case.

On to `Cc1noc(C2CCN(C(=O)[C@@H](N)Cc3ccc(Oc4ccnc5[nH]cc(C)c45)c(F)c3)C2)n1` (single isomer, unassigned) [Example 8B], for which the inhibitory constant (Ki) in test [1] and in test [2] was < 3 nM each time.

Regarding `Cc1c[nH]c2nccc(Oc3ccc(C[C@H](N)C(=O)N4CC[C@H](N(C)C)C4)cc3F)c12` [Example 49, (S)-2-amino-1-((S)-3-(dimethylamino)pyrrolidin-1-yl)-3-(3-fluoro-4-((3-methyl-1H-pyrrolo[2,3-b]pyridin-4-yl)oxy)phenyl)propan-1-one], the Ki in test [1] and in test [2] was < 3 nM in each case.

Consider `Cc1c[nH]c2nccc(Oc3ccc(C[C@H](N)C(=O)N4CCN(Cc5ccnnc5)CC4)cc3F)c12` [Example 153, (S)-2-amino-3-(3-fluoro-4-((3-methyl-1H-pyrrolo[2,3-b]pyridin-4-yl)oxy)phenyl)-1-(4-(pyridazin-4-ylmethyl)piperazin-1-yl)propan-1-one], for which the inhibitory constant (Ki) in test [1] and in test [2] was < 3 nM in each case.

With `Cc1c[nH]c2nccc(Oc3ccc(CC(N)C(=O)NCCc4ccncc4)cc3F)c12` (single isomer, unassigned) [Example 57A, 2-amino-3-(3-fluoro-4-((3-methyl-1H-pyrrolo[2,3-b]pyridin-4-yl)oxy)phenyl)-N-(2-(pyridin-4-yl)ethyl)propanamide], the inhibition constant (Ki) in test [1] is < 3 nM; in test [2], 3 to 30 nM.

On to `Cc1c[nH]c2nccc(Oc3ccc(C[C@H](N)C(=O)N[C@H]4CN5CCC4CC5)cc3F)c12` [Example 46, (S)-2-amino-3-(3-fluoro-4-((3-methyl-1H-pyrrolo[2,3-b]pyridin-4-yl)oxy)phenyl)-N-((R)-quinuclidin-3-yl)propanamide], for which the Ki in test [1] and in test [2] was < 3 nM each time.

As for `Cc1c[nH]c2nccc(Oc3ccc(C[C@H](N)C(=O)NCC4CCN(C)CC4)cc3F)c12` [Example 40, (S)-2-amino-3-(3-fluoro-4-((3-methyl-1H-pyrrolo[2,3-b]pyridin-4-yl)oxy)phenyl)-N-((1-methylpiperidin-4-yl)methyl)propanamide], the values for the Ki in test [1] and in test [2] were < 3 nM and 3 to 30 nM, respectively.

As to `N[C@@H](Cc1ccc(Oc2ccnc3[nH]cc(-c4ccncc4)c23)cc1)C(=O)N1CCN(Cc2ccccc2)CC1` [Example 192, (S)-2-amino-1-(4-benzylpiperazin-1-yl)-3-(4-((3-(pyridin-4-yl)-1H-pyrrolo[2,3-b]pyridin-4-yl)oxy)phenyl)propan-1-one], the inhibitory constant (Ki) in test [1] and in test [2] was < 3 nM each time.

For the molecule `Cc1c[nH]c2nccc(Oc3ccc(C[C@H](N)C(=O)N4CCC[C@@H](N(C)C)C4)cc3F)c12` [Example 50, (S)-2-amino-1-((R)-3-(dimethylamino)piperidin-1-yl)-3-(3-fluoro-4-((3-methyl-1H-pyrrolo[2,3-b]pyridin-4-yl)oxy)phenyl)propan-1-one], the Ki in test [1] and in test [2] was < 3 nM throughout.
